Experimental data taken from ChEMBL document CHEMBL3046709, “Substituted aminoalcohol ester analogs of indomethacin with reduced toxic effects” (Med Chem Res, 2007).
Where a name gives a salt, the structure may show the parent alone.

Columns and labels:
Mus musculus = test: Analgesic activity in Mus musculus (mouse) assessed as inhibition of acetic acid-induced writhing at 15 mg/kg, po administered 1 hr prior to acetic acid challenge measured at 5 to 20 min relative to control; type: functional
Rattus norvegicus [1] = test: Ulcerogenic activity in 36 hr fasting Rattus norvegicus Sprague-Dawley (rat) stomach assessed as ulcer index at 25 mg/kg, po measured after 4 hr; type: toxicity, organism-based; set-up: dose 25 mg/kg, route oral; settings: in vivo
Rattus norvegicus [2] = test: Anti-inflammatory activity in Rattus norvegicus Sprague-Dawley (rat) assessed as inhibition of carrageenan-induced paw edema at 3 mg/kg, po administered 1 hr prior to carrageenan-challenge measured after 3 hr by plethysmometric analysis relative to control; type: functional
Rattus norvegicus [3] = test: Anticholinergic activity in po dosed overnight fasted Rattus norvegicus (rat) ileum; type: functional; settings: read-out: pA2 (converted)
[4] = Half life in aqueous buffer at 1 mg/ml at pH 7.4 measured for 6 hr; type: ADME

| Compound | inhibition in vivo at 15 mg/kg (Mus musculus) | UI (Rattus norvegicus [1]) | inhibition in vivo at 3 mg/kg (Rattus norvegicus [2]) | Kb (Rattus norvegicus [3]) | half-life at 1 mg/ml [4] |
| --- | --- | --- | --- | --- | --- |
| COc1ccc2c(c1)c(CC(=O)OCCN1CCCC1)c(C)n2C(=O)c1ccc(Cl)cc1 | 37.2% | 0.341 | 37.5% | 12 µM | 99 h |
| COc1ccc2c(c1)c(CC(=O)O)c(C)n2C(=O)c1ccc(Cl)cc1 [INDOMETHACIN] | 42.1% | 0.547 | 45.4% |  |  |
| CCN(CC)CCOC(=O)Cc1c(C)n(C(=O)c2ccc(Cl)cc2)c2ccc(OC)cc12 | 23% | 0.317 | 34.6% | 32.4 µM | 39 h |
| COc1ccc2c(c1)c(CC(=O)OCCN(C)C)c(C)n2C(=O)c1ccc(Cl)cc1 | 39.9% | 0.149 | 46.7% | 6.46 µM | 34 h |
| CN1C2CCC1CC(OC(=O)C(CO)c1ccccc1)C2 (stereo not drawn) [ENDO-ATROPINE SULFATE] |  |  |  | 0.00631 µM |  |
| COc1ccc2c(c1)c(CC(=O)OCCN1CCCCC1)c(C)n2C(=O)c1ccc(Cl)cc1 | 35% | 0.134 | 16.6% | 9.12 µM | 66 h |
| COc1ccc2c(c1)c(CC(=O)OCCN1CCOCC1)c(C)n2C(=O)c1ccc(Cl)cc1 | 35.5% | 0.259 | 23.1% | 6.92 µM | 52 h |
